Here are results for seven molecules from US20220062173A1, “LIQUID COMPOSITIONS” (JOHNSON & JOHNSON CONSUMER INC., priority 2019, published 2022).

One data set has as its system throat. Nature of the data set: Additional cooling evaluation, targeted throat cooling. The class given is in vivo. The following applies: Yes/No. The text has this: (§1) Cooling sensate samples were requested from various flavor suppliers and were included into the formulation at a level recommended by the manufacturer and evaluated by various individuals in terms of cooling efficiency/intensity, area within the oral cavity where cooling could be felt, cooling onset time, and duration of cooling. It was interesting to see that all the sensate provided different degree of cooling and the area within the oral cavity where cooling could be felt was different.

Another data set deals with oral cavity. Nature of the data set: Taste-test evaluation of cooling sensates in base cough-cold liquid. The class given is in vivo. To be noted: for Cooling site: area within the oral cavity where cooling could be felt; for Cooling Intensity: sensate in base cough-cold liquid at the listed addition level. The method, then:
Various polymeric additives were combined into a base cough-cold liquid formula to determine interaction, and included various grades of Avicel®, CMC, HPMC among others. A synergistic effect was observed when Poloxamer was also included in the formulation containing above mentioned rheology modifier and a cooling flavor. A cooling sensation in the back of the throat could be felt, and the sensation lasted longer (approximately 5-10 min or even longer in some instances). […] The presence of just the viscosity modifiers and no Poloxamer, the same flavor did provide targeted cooling, but the extent and duration was less.
as §1
Mixing Procedure: The following procedure was used to mix the materials in Table 3. The formulation was prepared by adding purified water to a suitable vessel. The Avicel RC591 was then added while mixing using a high shear mixer until dissolved, followed by addition of propylene glycol while mixing using a propeller mixer at about 500-1000 RPM. The rest of the ingredients were added and mixed at approximately 50-100 RPM for at least 30 minutes. After complete dissolution, the solution was heated using a water bath to a temperature between […] for 15 minutes while continuously stirring. The solution was cooled to room temperature before adding propylene glycol while mixing. The rest of the ingredients were added and mixed for at least 30 minutes.

The conditions of data set [1]: solvents named; cited from earlier work.
A short description of data set [2]: Solution conductivity measurement. The class given is physicochemical. As for the experimental part:
Conductivity of solutions containing Poloxamer-188 and Cooler #2 in purified water at different concentrations was measured using a MultiLab 4010-2 conductivity meter with an IDS 4320 Conductivity and Temperature Sensor.
It is important to note that the solutions turned cloudy once Cooler #2 was added to the solution, indicating formation of an emulsion. The turbidity of the solutions was not very different as the level of Cooler #2 was increased.
Conductivity of the Water-PG solutions containing 0.35% CMC and 0.35% HPMC was also measured in water and in combination with Cooler #2 and Poloxamer. The conductivity results are summarized below in Table 5.

Entries after “also recorded” stand apart in the source; their conditions may differ.

Consider `CC(O)C(=O)O[C@@H]1C[C@H](C)CC[C@H]1C(C)C` (stereo partly shown) [Symcool NAT, Menthyl Lactate], for which the “Targeted Throat Cooling” value in the data set on throat was “Yes”. For the same molecule, in the data set on oral cavity, the Synergistic sensate effect entry was “Did work, providing synergistic sensate effect”; the Cooling site entry is “cooling in mouth, tongue along with some cooling in the back of the throat; also recorded: Tongue and some throat cooling”; the “Cooling Intensity” value is on record as “medium cooling”. For the same molecule, in the data set with oral cavity (Table 3), the Duration lay in the range of 5 to 6 min and the Overall entry was “Medium”. For the same molecule, the “Onset time” value in the data set on oral cavity (Table 3, values in secs) is approximately 10 s. In addition, in the data set on oral cavity (in words), the Onset time result is reported as “immediate”. Besides, the Overall entry in the data set with oral cavity (overall taste evaluation) was “Liquorish taste and cooling in the mouth and towards the back of the throat, cooling in throat as you breath in, intensity grows with time”. In data set [1], the Solubility entry was “Propylene glycol, ethanol”.
As for `CCNC(=O)[C@@H]1C[C@H](C)CC[C@H]1C(C)C` [WS-3, N-ethyl 2-isopropyl-5-methylcyclohexanecarboxamide], in the data set on throat, the “Targeted Throat Cooling” value is listed as “Yes”. Further, in the data set with oral cavity, the Synergistic sensate effect entry is reported as “Did work, providing synergistic sensate effect”; the Cooling site entry is listed as “cooling in mouth, tongue along with some cooling in the back of the throat”; the “Cooling Intensity” value is on record as “Intense Cooling, more intense than WS-5”. Besides, in the data set with oral cavity (Table 3), the Duration lay in the range of 4 to 5 min and the Overall entry was “Intense”. Besides, the “Onset time” value with oral cavity (Table 3, values in secs) was approximately 10 s. The Cooling site result in the data set on oral cavity (listed as Symcool®WS-3) was “towards the back on mouth, upper throat, and tongue”. The Overall result with oral cavity (overall taste evaluation) is “Intense cooling noticeable all around, tongue, and upper throat, sweeter sensation like menthol”. For the same molecule, the Onset time in the data set with oral cavity (values in secs) was approximately 10 s. Further, the Solubility entry in data set [1] was “Propylene Glycol, ethanol, insoluble in water”.
In the case of `CC(C)[C@@H]1CC[C@@H](C)C[C@H]1O` [Menthol, (1R,2S,5R)-2-isopropyl-5-methylcyclohexanol, reference compound], in the data set on throat, the “Targeted Throat Cooling” value was “No”. In the data set with oral cavity (Table 3), the Duration was in the range of 5 to 6 min and the Overall entry is “Cooling”. For the same molecule, the “Onset time” value with oral cavity (Table 3, values in secs) was approximately 10 s. In the data set with oral cavity, the Cooling site entry was “Throat and some in oral cavity tongue and front of the mouth”; the “Cooling Intensity” value is “Intense cooling”. For the same molecule, the Onset time result with oral cavity (in words) was “Immediate”. Further, in the data set on oral cavity (overall taste evaluation), the Overall entry was “Cooling noticeable on tongue and front of the mouth and throat”.
Regarding `CC(C)[C@@H]1CC[C@@H](C)C[C@H]1OC(=O)CCCC(=O)O` (stereo in doubt) [Cooler #2, Monomenthyl Glutarate], the “Targeted Throat Cooling” value in the data set on throat is on record as “Yes”. In the data set on oral cavity, the Synergistic sensate effect result is on record as “Did work, providing synergistic sensate effect”; the Cooling site entry is reported as “all the cooling was in the back of the throat”; the “Cooling Intensity” value is given as “Mild to medium cooling”. For the same molecule, in the data set with oral cavity (listed as IFF cooler #2), the Cooling site entry was “Throat”. The Duration with oral cavity (duration of cooling) is 7 to 9 min. Further, in the data set with oral cavity (overall taste evaluation), the Overall result is “Cooling concentrated towards the back of the throat, intensity grows with time and duration longer than others”. Also, the Onset time in the data set on oral cavity (values in secs) was approximately 30 s. The Solubility result in data set [1] is “Ethanol and Propylene Glycol, insoluble in Water”. The Conductivity result in data set [2] (0.05% of Cooler #2, 0.4% Poloxamer, Water-5% propylene glycol, about 7.4 without cooler) is listed as “about 35 μS/cm”. In addition, the “Effect on conductivity of the solution” value in data set [2] (purified water, Poloxamer-188 0.2% to 2.0%, 0.15% of Cooler #2) is “significant effect on the conductivity of the solution at lower concentrations of Poloxamer-188”.
As to `CCOC(=O)CNC(=O)[C@@H]1C[C@H](C)CC[C@H]1C(C)C` [WS-5, N-[(ethoxycarbonyl)methyl)-p-menthane-3-carboxamide], the “Targeted Throat Cooling” value with throat was “Yes”. The Synergistic sensate effect entry with oral cavity is given as “Did work, providing synergistic sensate effect”. Moreover, the Duration with oral cavity (Table 3) and in the data set with oral cavity (duration of cooling) was 6 to 7 min throughout. The Overall result with oral cavity (Table 3) is “Intense cooling”; with oral cavity (overall taste evaluation), “Intense cooling noticeable all around the oral cavity, tongue, and upper throat”. Besides, the “Onset time” value is approximately 10 s in the data set with oral cavity (Table 3, values in secs) and approximately 10 s in the data set on oral cavity (values in secs). The Cooling site entry in the data set with oral cavity is “cooling in mouth, tongue along with some cooling in the back of the throat”; with oral cavity (listed as Symcool WS-5), “towards the back on mouth, upper throat, and tongue”. Further, the “Cooling Intensity” value with oral cavity is recorded as “Intense Cooling”. Also, in data set [1], the Solubility result is given as “Propylene Glycol, ethanol, insoluble in water”.
`CNC(=O)C(C)(C(C)C)C(C)C` [WS 23, 2-isopropyl-N,2,3-trimethylbutyramide]: in the data set on throat, the “Targeted Throat Cooling” value is listed as “No”. Also, the Duration in the data set with oral cavity (Table 3) lay in the range of 3 to 4 min. Besides, the Overall entry was “Mild cooling” in the data set on oral cavity (Table 3); “Mild cooling noticeable on tongue, and front of the mouth, tingling and nose cooling as you breath out” with oral cavity (overall taste evaluation). In addition, the “Onset time” value in the data set with oral cavity (Table 3, values in secs) is approximately 10 s; in the data set with oral cavity (values in secs) it was approximately 10 s. The Cooling site result in the data set on oral cavity is “tongue and front of the mouth”. Further, in the data set with oral cavity, the “Cooling Intensity” value is “Mild Cooling, less than WS-3 and WS-5”.
With `COc1ccc(NC(=O)[C@@H]2C[C@H](C)CC[C@H]2C(C)C)cc1` [WS 12, (1R,2S,5R)-N-(4-methoxyphenyl)-5-methyl-2-(1-methylethyl) cyclohexanecarboxamide], the “Targeted Throat Cooling” value in the data set on throat is listed as “No”. For the same molecule, in the data set on oral cavity (Table 3), the Duration fell in the range of 5 to 7 min and the Overall entry is reported as “Mild cooling”. The “Onset time” value in the data set with oral cavity (Table 3, values in min) was 60 to 120 s. In addition, in the data set on oral cavity, the Cooling site result is “mostly tongue and some in upper throat”; the “Cooling Intensity” value is given as “Mild Cooling”. Further, the Overall result in the data set on oral cavity (overall taste evaluation) is “Mild cooling noticeable on tongue and some back of the throat”.
